# Source: US12622912B2, “Application of pyrido[1,2-a]pyrimidinone analog” (GUANGZHOU JOYO PHARMATECH CO., LTD, priority 2021, dated 2026)
# Read-outs that look alike come from different tables or passages of the source.
# Legend:
# [1] = tested on: ME-180 PIK3CA-mutated cervical cancer cell line; test: CTG cell proliferation, ME-180; assay type: cell-based; conditions: ME-180, CTG, 72 hours, read-out: Absolute IC50
# Source text: (§1) (2) Reagents • 1) FBS (fetal bovine serum) (purchased from ExCell, product number: FND500); • 2) RPMI1640 medium (purchased from Hyclone, product number: SH30809.01); • 3) McCoy's 5A medium (purchased from Gibco, product number: 12330-031); • 4) MEM medium (purchased from Hyclone, product number: SH30024.01; • 5) MEM NEAA (purchased from Gibco, product number: 11140-050); • 6) Sodium pyruvate (purchased from Gibco). (3) Test Article and Positive Control Article • Test article: compound I; Positive Control Article: • 1) Alpelisib, molecular weight: 441.47; solvent: DMSO; storage condition after dissolution: −20° C.; supplier: Shanghai TOPSCIENCE Biochemical Technology Co., Ltd., CAS number: 1217486-61-7; • 2) Cisplatin, molecular weight: 300.05; solvent: PBS (phosphate buffer saline); storage condition: 2-8° C.; supplier: Qilu Pharmaceutical. (4) The CTG Method was Used to Determine the Cell Proliferation IC50 of the Compound
# (§2) Step 1: Cells in exponential growth phase were harvested, and viable cells were counted with a Vi-Cell XR cytometer. The cell suspension was adjusted to an appropriate concentration with medium. 90 μL of cell suspension was added to each well of a 96-well cell culture plate, and the final cell concentration was 1500-6000 cells/well. […]
# (§3) Step 3: After 72 hours of drug treatment, 50 μL (½ culture volume) CTG solution that was melted and equilibrated to room temperature was added to each well according to the CTG operation instruction. […] After 10 minutes, the fluorescence signal value was measured with an Envision2104 plate reader.
# (§4) Cell survival rate was calculated using the formula: Vsample/Vvehicle control×100%. Where, Vsample was the reading of the drug treatment group, and Vvehicle control was the average value of the solvent control group. GraphPad Prism 5.0 software was used, and a S-type dosage-survival rate curve was drawn using a nonlinear regression model and IC50 value was calculated.
# [2] = tested on: Ca Ski PIK3CA-mutated cervical cancer cell line; test: CTG cell proliferation, Ca Ski; assay type: cell-based; conditions: 72 hours, read-out: Absolute IC50
# Source text: as §1, §2, §3, §4
# [3] = tested on: C-33A PIK3CA-mutated cervical cancer cell line; test: CTG cell proliferation, C-33A; assay type: cell-based; conditions: 72 hours, read-out: Absolute IC50
# Source text: as §1, §2, §3, §4
# [4] = tested on: PIK3CA-mutated cervical cancer cells; test: CTG cell proliferation, cervical cancer cell lines; assay type: cell-based; conditions: across PIK3CA-mutated cervical cancer cell lines, 72 hours, Alpelisib: in two cell lines, read-out: half inhibitory concentration
# Source text: (2) Reagents • 1) FBS (fetal bovine serum) (purchased from ExCell, product number: FND500); • 2) RPMI1640 medium (purchased from Hyclone, product number: SH30809.01); • 3) McCoy's 5A medium (purchased from Gibco, product number: 12330-031); • 4) MEM medium (purchased from Hyclone, product number: SH30024.01; • 5) MEM NEAA (purchased from Gibco, product number: 11140-050); • 6) Sodium pyruvate (purchased from Gibco). […]
# (§5) Step 1: Cells in exponential growth phase were harvested, and viable cells were counted with a Vi-Cell XR cytometer. […]
# as §3, §4
# [5] = tested on: HEC-1-A PIK3CA-mutated endometrial cancer cell line; test: CTG cell proliferation, HEC-1-A; assay type: cell-based; conditions: read-out: Absolute IC50
# Procedure: (§6) (2) Reagents • 1) FBS (fetal bovine serum) (purchased from ExCell, product number: FND500); • 2) McCoy's 5A medium (purchased from Gibco, product number: 12330-031); • 3) MEM medium (purchased from Hyclone, product number: SH30024.01). (3) Test Article and Positive Control Article • Test article: compound I; • Positive control article: Alpelisib, molecular weight: 441.47; solvent: DMSO; storage condition after dissolution: −20° C.; supplier: Shanghai TOPSCIENCE Biochemical Technology Co., Ltd., CAS number: 1217486-61-7; (4) The CTG Method was Used to Determine the Cell Proliferation IC50 of the Compound
# as §5, §3, §4
# [6] = tested on: HEC-1-B PIK3CA-mutated endometrial cancer cell line; test: CTG cell proliferation, HEC-1-B; assay type: cell-based; conditions: read-out: Absolute IC50
# Procedure: as §6
# (§7) Step 1: Cells in exponential growth phase were harvested, and viable cells were counted with a Vi-Cell XR cytometer. The cell suspension was adjusted to an appropriate concentration with medium. 90 μL of cell suspension was added to each well of a 96-well cell culture plate, and the final cell concentration was 1500-6000 cells/well.
# Step 2: The initial concentration of administration of compound I and the control drug Alpelisib was 3 μM, serially diluted 3-fold, a total of 9 concentration gradients and a DMSO control, the final concentration of DMSO in each well was 0.1%, placed in a 37° C., 5% CO2 incubator for 72 hours.
# (§8) Step 3: After 72 hours of drug treatment, 50 μL (½ culture volume) CTG solution that was melted and equilibrated to room temperature was added to each well according to the CTG operation instruction. The solution was mixed well with a microplate shaker for 2 minutes, and placed at room temperature. After 10 minutes, the fluorescence signal value was measured with an Envision2104 plate reader.
# as §4
# [7] = tested on: T47D PIK3CA-mutated breast cancer cell line; test: CTG cell proliferation, T47D; assay type: cell-based; conditions: 72 hours, read-out: Absolute IC50
# Source text: (§9) (2) Reagents • 1) FBS (fetal bovine serum) (purchased from ExCell, product number: FND500); • 2) DMEM medium (purchased from Gibco, product number: C11995500BT); • 3) Insulin (purchased from Gibco, product number: EPX010-12003-901); • 4) RPMI1640 medium (purchased from Hyclone, product number: SH30809.01); • 5) MEM medium (purchased from Hyclone, product number: SH30024.01). (3) Test Article and Positive Control Article • Test article: compound I; • Positive control article: Cisplatin, Molecular weight: 300.05; Solvent: PBS (phosphate buffer saline); Storage condition: 2-8° C.; Supplier: Qilu Pharmaceutical. (4) The CTG Method was Used to Determine the Cell Proliferation IC50 of the Compound.
# as §7
# (§10) Step 2: The initial concentration of administration of compound I was 3 μM, and the initial concentration of administration of the control drug Cisplatin was 100 μM, and serially diluted 3-fold, a total of 9 concentration gradients and a DMSO control, the final concentration of DMSO in each well was 0.1%, placed in a 37° C., 5% CO2 incubator for 72 hours.
# as §3, §4
# [8] = tested on: BT-474 PIK3CA-mutated breast cancer cell line; test: CTG cell proliferation, BT-474; assay type: cell-based, human; conditions: BT-474, CTG, 72 hours; read-out: Absolute IC50
# Source text: as §9, §7, §10, §3, §4
# [9] = tested on: J82 PIK3CA-mutated bladder cancer cell line; test: CTG cell proliferation, J82; assay type: cell-based; conditions: 72 hours, read-out: Absolute IC50
# Source text: (§11) (2) Reagents • 1) FBS (fetal bovine serum) (purchased from ExCell, product number: FND500); • 2) MEM medium (purchased from Hyclone, product number: SH30024.01; • 3) MEM NEAA (purchased from Gibco, product number: 11140-050); • 4) Sodium pyruvate (purchased from Gibco). […] (4) The CTG Method was Used to Determine the Cell Proliferation IC50 of the Compound
# as §7, §8
# (§12) Cell survival rate was calculated using the formula: Vsample/Vvehicle control×100%. Where, Vsample was the reading of the drug treatment group, and Vvehicle control was the average value of the solvent control group.
# [10] = tested on: TCCSUP PIK3CA-mutated bladder cancer cell line; test: CTG cell proliferation, TCCSUP; assay type: cell-based; conditions: 72 hours, read-out: Absolute IC50
# Source text: as §11, §7, §8, §12
# [11] = tested on: human breast cancer BT-474 subcutaneous xenograft tumor; test: In vivo efficacy, BT-474 subcutaneous xenograft tumor model; set-up: species or system BALB/c nude mice; conditions: for Tumor volume (Day 20): Mean ± SEM; for T/C / TGI: day 20
# Procedure: Experimental purpose: Study the in vivo efficacy of the test drug on human breast cancer BT-474 subcutaneous xenograft tumor BALB/c nude mouse model.
# (1) Cell culture: human breast cancer BT-474 cells were monolayer cultured in vitro. The culture conditions were that 10% fetal bovine serum, 100 U/ml penicillin (purchased from Gibco) and 100 μg/ml chain Mycin (purchased from Gibco) were added to Hybri-Care medium, and cultured at 37° C. and 5% CO2. Routine digestion and passage were performed with trypsin-EDTA (purchased from Gibco, product number: 25200-072) twice a week. When the cell saturation was 80%-90%, the cells are harvested, counted and inoculated.
# (2) Animals: BALB/c nude mice, female, 6 weeks old, weighing 16-18 grams. Provided by Shanghai Sippe-Bk Lab Animal Co., Ltd.
# (3) Control article: • Both PF05212384 and Everolimus were purchased from Shanghai TOPSCIENCE Biochemical Technology Co., Ltd.
# (4) Tumor inoculation: 0.2 ml (1×10^7) BT-474 cells (matrigel was added, volume 1:1) were subcutaneously inoculated on the right back of each mouse, and the mice were divided into groups and administered with drugs when the average tumor volume reached 122 mm^3. See Table 10 below for the experimental grouping and dosing regimen.
# [12] = 5 mg/kg, oral, once a day for 20 days, vs Solvent 2
# [13] = 20 mg/kg, vein, once a week for 3 weeks, vs Solvent 1
compound,measurement,setting,value
Cc1nc(NC(=O)N2CCC[C@H]2C(N)=O)sc1-c1ccnc(C(C)(C)C(F)(F)F)c1 [Alpelisib],IC50,[1]; Homo sapiens,2.07 µM
same,IC50,[2]; Homo sapiens,> 3 µM
same,IC50,[3]; Homo sapiens,> 3 µM
same,IC50,[4],> 3 µM
same,IC50,[5]; 72 hours,2.46 µM
same,IC50,"[5]; Homo sapiens, 72 h",> 2 µM
same,IC50,[6]; 72 hours,2.41 µM
same,IC50,"[6]; Homo sapiens, HEC-1B, 72 h",> 2 µM
N.N.[Cl][Pt][Cl] [Cisplatin],IC50,[7],36.6 µM
same,IC50,[8],> 100 µM
same,IC50,[1],2.83 µM
same,IC50,[2],16.2 µM
same,IC50,[3],3.56 µM
same,IC50,[9],1.73 µM
same,IC50,[10],3.77 µM
"CO[C@H]1C[C@@H]2CC[C@@H](C)[C@@](O)(O2)C(=O)C(=O)N2CCCC[C@H]2C(=O)O[C@H]([C@H](C)C[C@@H]2CC[C@@H](OCCO)[C@H](OC)C2)CC(=O)[C@H](C)/C=C(\C)[C@@H](O)[C@@H](OC)C(=O)[C@H](C)C[C@H](C)/C=C/C=C/C=C/1C [Everolimus, reference compound]",Tumor volume (Day 20),"[11]; 5 mg/kg, oral, once a day for 20 days",82 ± 17 mm^3
same,T/C,[11]; [12],19%
same,TGI,[11]; [12],113%
"CN(C)C1CCN(C(=O)c2ccc(NC(=O)Nc3ccc(-c4nc(N5CCOCC5)nc(N5CCOCC5)n4)cc3)cc2)CC1 [PF05212384, reference compound]",Tumor volume (Day 20),"[11]; 20 mg/kg, vein, once a week for 3 weeks",49 ± 6 mm^3
same,T/C,[11]; [13],15%
same,TGI,[11]; [13],134%
